{"source": "patent US20040082521A1", "about": "“Novel formulations of digitalis glycosides for treating cell-proliferative and other diseases” (Azaya Therapeutics Inc., priority 2002, published 2004)", "origin": "cited, not measured here", "key": {"[1]": {"tested_on": "various cancer cell lines"}, "[2]": {"tested_on": "androgen-independent human prostate cancer cell lines", "conditions": "for apoptosis: in vitro"}, "[3]": {"tested_on": "FGF-2 release from PC3 cells", "conditions": "0.1 ng/mL"}, "[4]": {"tested_on": "FGF-2 release from DU145 cells", "conditions": "0.1 ng/mL"}, "[5]": {"tested_on": "human malignant cell lines", "conditions": "for growth and apoptosis: non-toxic concentrations"}}}
{"smiles": "CO[C@@H]1C[C@H](O[C@H]2CC[C@@]3(C)[C@H](CC[C@@]45O[C@@]46CC[C@H](C4=CC(=O)OC4)[C@@]6(C)CC[C@H]35)C2)O[C@H](C)[C@@H]1O", "note": "[adynerin]", "values": [{"measurement": "anti-cancer activities", "setting": "[1]", "value": "significant anti-cancer activities"}]}
{"smiles": "C[C@H]1[C@H](C)CC[C@]2(C(=O)O)CC[C@]3(C)C(=CC[C@@H]4[C@@]5(C)CC[C@H](O)C(C)(C)[C@@H]5CC[C@]43C)[C@H]12", "note": "[ursolic acid]", "values": [{"measurement": "anti-cancer activities", "setting": "[1]", "value": "significant anti-cancer activities"}]}
{"smiles": "C[C@@H]1O[C@@H](O[C@H]2C[C@@H](O)[C@]3(CO)[C@H]4[C@H](O)C[C@]5(C)[C@@H](C6=CC(=O)OC6)CC[C@]5(O)[C@@H]4CC[C@]3(O)C2)[C@H](O)[C@H](O)[C@H]1O", "note": "[Ouabain, reference compound]", "values": [{"measurement": "apoptosis", "setting": "[2]", "value": "induce apoptosis"}]}
{"smiles": "CO[C@H]1C[C@H](O[C@H]2CC[C@@]3(C)[C@H](CC[C@@H]4[C@@H]3CC[C@]3(C)[C@@H](C5=CC(=O)OC5)[C@@H](OC(C)=O)C[C@]43O)C2)O[C@@H](C)[C@@H]1O", "note": "[Oleandrin, 16b-acetoxy-3b-[(2,6-dideoxy-3-0-methyl-a2-L-arabino-hexopyranosyl)oxy]14-hydroxy-5β, 14β-card-20(22)-enolide]", "values": [{"measurement": "caspase activation", "setting": "[2]; cleavage of poly (ADP-ribose) polymerase, hydrolysis of DEVD-pNA", "value": "promoted caspase activation"}, {"measurement": "apoptosis", "setting": "[2]", "value": "induce apoptosis"}, {"measurement": "inhibition of FGF-2 release", "setting": "[3]", "value": 45.7, "unit": "%"}, {"measurement": "anti-cancer activities", "setting": "[1]", "value": "significant anti-cancer activities"}, {"measurement": "elimination from the body", "setting": "in vivo", "value": "one to two"}, {"measurement": "distribution in the body", "setting": "when ingested", "value": "widely distributed in the body"}, {"measurement": "TNF-induced activation of NF-κB", "setting": "NF-κB; TNF-induced", "value": "blocked"}, {"measurement": "NF-κB activation induced by phorbol ester and lipopolysaccharide", "setting": "NF-κB; phorbol ester and lipopolysaccharide", "value": "blocked"}, {"measurement": "NF-κB-dependent reporter gene transcription activated by TNF", "setting": "NF-κB; reporter gene", "value": "suppressed"}, {"measurement": "cell-killing potency", "setting": "human cancer cells; comparison Oleandrin vs water extract", "value": "greater than that of the water extract"}, {"measurement": "cell killing", "setting": "human cancer cells; human cancer cells", "value": "able to induce cell killing"}, {"measurement": "inhibition of FGF-2 release", "setting": "[4]", "value": 49.9, "unit": "%"}, {"measurement": "AP-1 activation induced by TNF and other agents", "setting": "AP-1", "value": "blocked"}, {"measurement": "TNF-induced activation of c-Jun NH2terminal kinase", "setting": "c-Jun NH2terminal kinase", "value": "inhibited"}]}
{"smiles": "C[C@H]1O[C@@H](O[C@H]2[C@@H](O)C[C@H](O[C@H]3[C@@H](O)C[C@H](O[C@H]4CC[C@@]5(C)[C@H](CC[C@@H]6[C@@H]5CC[C@]5(C)[C@@H](C7=CC(=O)OC7)CC[C@]65O)C4)O[C@@H]3C)O[C@@H]2C)C[C@H](O)[C@@H]1O", "note": "[digitoxin]", "values": [{"measurement": "apoptosis-inducing effect", "setting": "[5]; in vitro, digitoxin vs digoxin", "value": "more potent for digitoxin than for digoxin"}, {"measurement": "growth and apoptosis", "setting": "[5]", "value": "inhibits growth and induce apoptosis"}]}
{"smiles": "C[C@H]1O[C@@H](O[C@H]2[C@@H](O)C[C@H](O[C@H]3[C@@H](O)C[C@H](O[C@H]4CC[C@@]5(C)[C@H](CC[C@@H]6[C@@H]5C[C@@H](O)[C@]5(C)[C@@H](C7=CC(=O)OC7)CC[C@]65O)C4)O[C@@H]3C)O[C@@H]2C)C[C@H](O)[C@@H]1O", "note": "[digoxin, reference compound]", "values": [{"measurement": "apoptosis", "setting": "[2]", "value": "induce apoptosis"}, {"measurement": "growth and apoptosis", "setting": "[5]", "value": "inhibits growth and induce apoptosis"}]}
